According to patent US6887468B1 (Board of Regents, The University of Texas System, priority 1999, dated 2005):
Entries after “also recorded” stand apart in the source; their conditions may differ.

Columns and labels:
mouse VEGF = molecular target: T1, mouse VEGF (Mus musculus, UniProt Q00731); assay: Indirect ELISA with mouse VEGF; assay type: binding
T1 sequence (Q00731 27-190 isoform Q00731-2): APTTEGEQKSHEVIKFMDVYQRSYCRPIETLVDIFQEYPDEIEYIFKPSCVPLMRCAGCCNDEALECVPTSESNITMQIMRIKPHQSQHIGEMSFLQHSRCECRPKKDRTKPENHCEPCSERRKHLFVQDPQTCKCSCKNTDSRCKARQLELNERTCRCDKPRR

[1] = system: VEGF-mediated growth of ABAE cells; assay: Endothelial cell growth assay (MTS), VEGF-mediated growth of ABAE cells; assay type: cell-based, bovine; settings: summary table
Description: ABAE cells were grown in the presence of the various indicated antibodies and 0.5 nM VEGF. Growth after 4 days was determined colorimetrically by the enzymatic conversion of MTS (Owen's reagent) to a yellow formazan. […] Background was determined by growing cells without VEGF or antibody and was subtracted from the control and sample wells.
Adult bovine aortic endothelial (ABAE) cells were plated into 96-well tissue culture plates at 1500 cells/well and grown in the presence of 0.5 nM human VEGF with the addition of the various sample and control antibodies. Control wells received media with or without VEGF.
After 4 days of incubation, the cells were quantified by an MTS (3-(4,5-dimethylthiazol-2-yl)-5-(3-carboxylmethoxyphenyl)-2-(4-sulfophenyl)-2H-tetrazolium, inner salt) conversion assay, where MTS conversion to a formazan is proportional to cell number and can be followed by absorbance at 490 nm (Cell Titer 96 AQueous One Solution Cell Proliferation Assay, Promega, Madison, Wis.). The assay was performed according to the manufacturer's instructions.
Cell growth was estimated by subtracting the MTS conversion in cultures to which VEGF was not added. Results were expressed as a percentage of the MTS conversion in control cultures to which only VEGF was added (Buttke et al., 1993).

NCI-H358 NSCLC = assay: In vivo tumor growth inhibition, newly-implanted NCI-H358 NSCLC; parameters: species or system nu/nu mice
Description: (§1) FIG. 3A and FIG. 3B. […] FIG. 3A: 1×10^7 NCI-H358 NSCLC cells were injected subcutaneously into nu/nu mice on day 0. FIG. 3B: 5×10^6 A673 rhabdomyosarcoma cells were injected subcutaneously into nu/nu mice on day 0. Mice were injected i.p. with the indicated IgG on day 1 and 2 times/week thereafter. […] Tumors were measured 2-3 times per week. Mean and standard error is shown for the duration of the study in FIG. 3A, while data for the last day of the study (day 26) is shown in FIG. 3B.
(§2) Nu/nu mice were injected subcutaneously with either 1×10^7 NCI-H358 NSCLC cells or 5×10^6 A673 rhabdomyosarcoma cells on day 0. […] The tumors were then measured twice per wk for a period of approximately six wk for the NCI-H358 bearing mice and four wk for the A673 bearing mice. Tumor volume was calculated according to the formula: volume=L×W×H, where L=length, W=width, H=height.

VEGFR1 (FLT-1), Flt-1/Fc = assay: ELISA: VEGF binding to VEGFR1-coated wells in presence of antibody; settings: summary table
Description: (§3) FIG. 2. […] The plate was then incubated with rabbit anti-VEGF (A-20, Santa Cruz Biotechnology, Inc.) at 1 μg/ml and developed using a peroxidase conjugated goat anti-rabbit antibody. Assays were performed in triplicate. Mean percent binding in the absence of antibody is shown, together with the standard deviation.
(§4) The assay was also performed by coating wells of a microtiter plate with either control or test IgG.

NCI-H358 NSCLC tumors = assay: Treatment of established NCI-H358 NSCLC tumor xenografts; assay type: in vivo, nu/nu mice
Description: FIG. 4. […] Mean tumor volume along with the SEM over 116 days is shown.
FIG. 5A and FIG. 5B. […] Treatments (T) were 100 μg of the IgG given i.p., except for the initial treatment that consisted of 500 μg of the IgG given i.v. Mean tumor volume along with the SEM is shown. At the end of the study (day 116), the mice were sacrificed and the tumors dissected out and weighed. […] The mice were treated every other day as indicated (T). […] Mean tumor volume along with the SE is shown.
Male nu/nu mice bearing subcutaneous NCI-H358 tumors or HT1080 fibrosarcoma 200-400 mm^3 in size were injected i.p. with test or control antibodies. The NCI-H358 bearing mice were treated with 100 μg of antibodies per injection three times a week during the first week and twice a week during the second and third week. The mice were then switched to 50 μg per injection every five days. The HT1080 bearing mice were treated with 100 μg of the indicated antibody or saline every other day throughout the duration of the study. In both studies, mice were sacrificed when their tumors reached 2500 mm^3 in size or earlier if tumors began to ulcerate.
Doses were 50-100 μg every 3-5 days. […] In addition to measuring mean tumor volume (FIG. 4), photographs of the mice from each treatment group were also taken to show the differences in tumor size and appearance at the end of the study.

[2] = molecular target: T2, denatured VEGF121 and VEGF165 (Homo sapiens, UniProt P15692); assay: Western blot analysis of anti-VEGF antibodies; assay type: binding; settings: reducing and non-reducing conditions
T2 sequence (P15692 27-191 isoform P15692-4): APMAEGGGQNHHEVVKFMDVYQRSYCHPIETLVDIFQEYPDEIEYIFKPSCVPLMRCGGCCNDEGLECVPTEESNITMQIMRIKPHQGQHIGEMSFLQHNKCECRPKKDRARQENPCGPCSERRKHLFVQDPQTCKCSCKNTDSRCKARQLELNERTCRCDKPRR
Description: The nitrocellulose membrane was blocked using Sea-Block PP82-41 (East Coast Biologics, Berwick, Me.), and probed with primary antibodies using a mini-blotter apparatus (Immunetics, Cambridge, Mass.). The membranes were developed after incubation with the appropriate peroxidase-conjugated secondary antibody by ECL enhanced chemiluminescence.
Western blot analyses of anti-VEGF antibodies were conducted by separating VEGF165 in the presence of 5% FCS using SDS-PAGE on a 12% gel and analyzing by a standard western blotting protocol using ECL detection. The primary antibodies were incubated with the nitrocellulose membrane using a multi-lane mini-blotter apparatus.

A673 rhabdomyosarcoma = assay: In vivo tumor growth inhibition, newly-implanted A673 rhabdomyosarcoma; parameters: species or system nu/nu mice
Description: as §1, §2

[3] = molecular target: T3, VEGF alone or VEGF associated with sFlk-1 (VEGF:Flk-1) (Homo sapiens, UniProt P15692); assay: Indirect and capture ELISA for reactivity with VEGF alone or VEGF associated with sFlk-1; assay type: binding; settings: VEGF alone or VEGF:Flk-1
T3 sequence (P15692 27-191 isoform P15692-4): T2 sequence (P15692 27-191 isoform P15692-4)
Description: The Flk-1/SEAP protein was produced and purified as described by Tessler etal. (1994). Basically, the extracellular domain of Flk-1 (sFlk-1) was produced in Spodoptera frugiperda (Sf9) cells and purified by immunoaffinity techniques utilizing a monoclonal anti-Flk-1 antibody (1A8). sFlk-1 was then biotinylated and bound on avidin-coated plates.
The reactivity was determined as described above for the initial screening.
A capture ELISA was also developed. In the capture ELISA, microtiter plates were coated overnight at 4° C. with 100 ng of the indicated antibody. […] Streptavidin conjugated to peroxidase (Kirkegaard & Perry Laboratories, Inc.), diluted 1:2000, was used as a second layer and developed.

[4] = system: VEGFR2 (KDR/Flk-1), sFlk-1-biotin; assay: ELISA: VEGF binding to VEGFR2-coated wells in presence of antibody; parameters: species or system mouse
Description: as §3, §4

KDR = assay: 125I-VEGF binding studies on KDR expressing endothelial cells (ABAE cells); parameters: species or system bovine
[5] = 100 μg i.p. 2 times per wk from day 1, controls approximately 1000 mm^3

For “2C3: anti-VEGF monoclonal IgG2a,k from hybridoma ATCC PTA 1595; blocks VEGF binding to VEGFR2 but not VEGFR1”, the “Reactivity with mouse VEGF” value (mouse VEGF) was “all the antibodies except 2C3 react with mouse VEGF”, the “Blocks VEGF-induced proliferation” value [1] was “Yes” and the “Tumor growth retardation in NCI-H358 tumor model, lower dose” value (NCI-H358 NSCLC; 10 μg twice per wk) was “less marked”. For the same substance, the Final tumor volume (NCI-H358 NSCLC; [5]) was “approximately 150 mm^3”, the “Blocks VEGF from binding to VEGFR1” value (VEGFR1 (FLT-1), Flt-1/Fc) was “No” and the “Mean tumor weight at end of study (day 116)” value (NCI-H358 NSCLC tumors; 100 μg i.p., initial treatment 500 μg i.v.) was 0.054 g. The “Mean tumor volume after approximately 14 wk of treatment” value (NCI-H358 NSCLC tumors; 100 μg, start 480 mm^3 (2C3), 428 mm^3 (3E7)) was 84 mm^3, the “Mean tumor volume at the end of the study as % of initial mean tumor volume” value (NCI-H358 NSCLC tumors; 50-100 μg i.p. every 3-5 days, approximately 10 weeks) was 30% and the “Decrease in mean tumor volume” value (NCI-H358 NSCLC tumors; approximately 14 wk of treatment, 100 μg) was “approximately 80%”. The “Regression of established NCI-H358 tumors” value (NCI-H358 NSCLC tumors; mouse, in vivo) was “caused significant tumor regressions; also recorded: slow regression of the tumors”, the “Reactivity with VEGF on western blot” value [2] was “react with denatured VEGF121 and VEGF165 under reducing and non-reducing conditions” and the Final tumor volume (A673 rhabdomyosarcoma; [5]) was “approximately 150 mm^3”. The “Effect on growth of A673 tumors, lower doses” value (A673 rhabdomyosarcoma; 10 or 1 μg twice per wk) was “did slow the growth of A673 tumors”, the “Predominant Reactivity” value [3] was “VEGF” and the “Reduction in VEGF binding to VEGFR2” value ([4]; 100 fold molar excess over VEGF) was “about 74%”. The “VEGF bound to VEGFR2-coated wells, % of amount bound in absence of antibody” value ([4]; 1000-fold molar excess over VEGF) was roughly 19%, the “Reduction in VEGF binding to VEGFR2” value ([4]; 1000 fold molar excess over VEGF) was “about 81%” and the “Blocks VEGF from binding to VEGFR2” value ([4]; summary table) was “Yes”. The “Blocking of 125I-VEGF binding to KDR” value (KDR) was “blocks VEGF from binding to KDR in a concentration dependent manner”.
